From PMC8151276, “An Integrated Approach toward NanoBRET Tracers for Analysis of GPCR Ligand Engagement” (Molecules, 2021)

Molecular target: T1, CYSLTR2 (Homo sapiens, UniProt Q9NS75)
T1 construct: purchased Promega (in-house HiBiT-GPCR construct library, NanoBRET)
T1 sequence (Q9NS75 1-346): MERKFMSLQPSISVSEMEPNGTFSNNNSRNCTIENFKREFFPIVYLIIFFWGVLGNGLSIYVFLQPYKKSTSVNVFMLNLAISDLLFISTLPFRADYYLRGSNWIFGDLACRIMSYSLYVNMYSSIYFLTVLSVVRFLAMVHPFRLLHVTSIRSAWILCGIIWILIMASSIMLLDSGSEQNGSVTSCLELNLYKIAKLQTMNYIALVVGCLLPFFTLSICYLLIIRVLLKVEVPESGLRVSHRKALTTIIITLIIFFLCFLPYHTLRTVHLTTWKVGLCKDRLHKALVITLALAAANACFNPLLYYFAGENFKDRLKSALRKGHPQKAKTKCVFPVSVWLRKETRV
Assay: NanoBRET screen HiBiT-CYSLTR2 in HEK293
Assay type: binding
Protocol: Each tracer candidate was screened across the entire library of HiBiT-GPCR constructs using NanoBRET as the detection modality. As depicted in Figure 4A, the specificity of interactions was evaluated through decrease in BRET due to competitive displacement of a bound tracer by excess parental compound. Each tracer was analyzed for binding to each HiBiT-GPCR fusion in the absence and in the presence of competing parental compound. Briefly, HEK293 cells were transfected with HiBiT-GPCR constructs diluted into promoterless DNA to reduce expression and maximize translocation to the cell surface. Each tracer candidate was then screened at concentrations of 1 μM and 0.1 μM across cells expressing these fusions. Cells were treated for 1.5 h with tracer either alone or in the presence of 20 μM competing parental compound (i.e., control). BRET was measured upon addition of purified LgBiT and subsequent complementation with HiBiT genetically fused to a GPCR. The specificity of interactions was assessed through a decrease in BRET signal due to competitive displacement of the bound tracer. To further gauge the robustness of these interactions, the fold response over the control (i.e., BRETtracer/BRETcontrol) was calculated. We chose a 1.5-fold response, which translates to ≥7-fold signal over noise as the minimal threshold required to score an interaction as positive. […]. Below we highlight the screening results obtained for our exemplary fluorescent tracers based on Clozapine, Amitriptyline and AZD1283.
HiBiT-GPCR DNA constructs were diluted in 10 mM Tris pH 8 to a final concentration of 0.01 μg/μL, arrayed in 96-well plates and stored at −20 °C. For transfection, HEK293 cells were suspended in Opti-MEM (without phenol red) supplemented with 2% fetal bovine serum (Seradigm) and 100 units/mL penicillin–streptomycin (Gibco) at a final concentration of 220,000 cells/mL and dispensed into white 96-well plates at 90 μL/well. Subsequent transfections and screens were carried using an Agilent Bravo Automated Liquid Handling Platform. First, the 96-well HiBiT DNA arrays were diluted 25-fold in Opti-MEM (without serum or phenol red) to a final concentration of 0.0004 μg/μL and 20 μL of the diluted DNAs were transferred into new 96-well plates. Next, promoterless carrier DNA (1 μg/μL) was diluted 25-fold (0.04 μg/μL) and then dispensed into the diluted arrays at 20 μL/well. Following brief mixing, Viafect transfection reagent (Promega) diluted 16-fold into Opti-MEM was dispensed into the plates at 40 μL/well. After mixing by pipetting, plates were incubated for 10 min on the pipetting station deck. The DNA-transfection reagent complexes were then added to plates containing cells. To facilitate the screen, 10 μL of DNA-transfection reagent complexes were added in duplicates to the top 4 and bottom 4 rows, resulting in two identical 48-well arrays per plate. Plates with transfected cells were incubated for 18–20 h at 37 °C/5% CO2. A screen of each tracer across the entire library using two different concentrations requires duplicate plates of transfected cells. Depending on the number of tracers being screened, transfections can be scaled up using the same ratios. The next day, for each tracer, four 20× screening solutions in tracer dilution buffer (Promega) were prepared: two duplicates at final concentration of 20 μM and two duplicates at a final concentration of 2 μM. A competing unmodified compound was added to one of each duplicate at a final concentration of 400 μM. The four resulting solutions were diluted 4-fold in Opti-MEM without serum or phenol red to generate 5× solutions (5 µM and 0.5 µM tracer +/− 100 μM competing compound). To screen the library, a BioTek MultiFlo FX liquid dispenser was used to dispense 22.5 µL of tracer solution to the top 4 rows and 22.5 µL tracer + competing compound solution to the 4 bottom rows. Plates were briefly mixed on an orbital shaker and incubated for 1.5 h at room temperature. […]

## CCOC(=O)c1cc(C#N)c(N2CCC(C(=O)NS(=O)(=O)Cc3ccccc3/C=C/C(=O)NCCNC(=O)CCc3ccc4n3[B-](F)(F)[N+]3=C(c5ccc[nH]5)C=CC3=C4)CC2)nc1C [AZD1283-1-NB590]
CYSLTR2, 0.1μM
  NanoBRET Fold Response: 1.07
CYSLTR2, 1μM
  NanoBRET Fold Response: 0.97

## N#CN=C(NCCCOc1cccc(CN2CCCCC2)c1)NCCNC(=O)CCOCCOCCOCCOCCNC(=O)CCc1ccc2n1[B-](F)(F)[N+]1=C(c3ccc[nH]3)C=CC1=C2 [Aminopotentidine-2-NB590]
CYSLTR2, tracer 0.1μM
  NanoBRET Fold Response: 1.05
CYSLTR2, tracer 1μM
  NanoBRET Fold Response: 0.98

## CN(C)CCC=C1c2ccccc2CCc2ccc(C(=O)NCCNC(=O)CCOCCOCCOCCOCCNC(=O)CCc3ccc4n3[B-](F)(F)[N+]3=C(c5ccc[nH]5)C=CC3=C4)cc21 [Amitriptyline-b-2-NB590]
CYSLTR2, tracer 0.1μM
  NanoBRET Fold Response: 0.95
CYSLTR2, tracer 1μM
  NanoBRET Fold Response: 1.04

## COc1ccc2c(n1)c(CCNC(C)=O)cn2CCNC(=O)CCc1ccc2n1[B-](F)(F)[N+]1=C(c3ccc[nH]3)C=CC1=C2 [Azamelatonin-1-NB590]
0.1μM tracer
  NanoBRET Fold Response: 1.37
1μM tracer
  NanoBRET Fold Response: 0.46

## COc1ccc2[nH]c(-c3ccc(CNC(=O)CCOCCOCCOCCOCCNC(=O)CCc4ccc5n4[B-](F)(F)[N+]4=C(c6ccc[nH]6)C=CC4=C5)cc3)c(CCNC(C)=O)c2n1 [AzomelatoninICO9-2-NB590]
0.1μM tracer
  NanoBRET Fold Response: 1.03
1μM tracer
  NanoBRET Fold Response: 1.06

## O=C(CCOCCOCCOCCOCCNC(=O)CCc1ccc2n1[B-](F)(F)[N+]1=C(c3ccc[nH]3)C=CC1=C2)NCCCN1CCN(C2=Nc3cc(Cl)ccc3Nc3ccccc32)CC1 [Clozapine-a-2-NB590]
CYSLTR2, 0.1μM tracer
  NanoBRET Fold Response: 0.99
CYSLTR2, 1μM tracer
  NanoBRET Fold Response: 1.03

## CN1CCN(C2=Nc3cc(Cl)ccc3Nc3ccc(CNC(=O)CCOCCOCCOCCOCCNC(=O)CCc4ccc5n4[B-](F)(F)[N+]4=C(c6ccc[nH]6)C=CC4=C5)cc32)CC1 [Clozapine-b-2-NB590]
CYSLTR2, 0.1μM tracer
  NanoBRET Fold Response: 1.01
CYSLTR2, 1μM tracer
  NanoBRET Fold Response: 1.03

## CN1CCN(C2=Nc3cc(Cl)ccc3N(CC(=O)NCCOCCOCCOCCOCCNC(=O)CCc3ccc4n3[B-](F)(F)[N+]3=C(c5ccc[nH]5)C=CC3=C4)c3ccccc32)CC1 [Clozapine-c-2-NB590]
CYSLTR2, 0.1μM tracer
  NanoBRET Fold Response: 1.04
CYSLTR2, 1μM tracer
  NanoBRET Fold Response: 1.07

## O=C(CCOCCOCCOCCOCCNC(=O)CCc1ccc2n1[B-](F)(F)[N+]1=C(c3ccc[nH]3)C=CC1=C2)NCCCN1CCN(C2=Nc3ccccc3Oc3ccc(Cl)cc32)CC1 [Loxapine-a-2-NB590]
CYSLTR2, tracer 0.1μM
  NanoBRET Fold Response: 0.91
CYSLTR2, tracer 1μM
  NanoBRET Fold Response: 1.02

## COc1ccccc1N1CCN(CCCCN2C(=O)c3ccc(CNC(=O)CCOCCNC(=O)c4ccc(CNC(=O)CCc5ccc6n5[B-](F)(F)[N+]5=C(c7ccc[nH]7)C=CC5=C6)cc4)cc3C2=O)CC1 [NAN-190-3-NB590]
CYSLTR2, tracer 0.1μM
  NanoBRET Fold Response: 1.11
CYSLTR2, tracer 1μM
  NanoBRET Fold Response: 1.31

## O=C(CCc1ccc2n1[B-](F)(F)[N+]1=C(c3ccc[nH]3)C=CC1=C2)NCc1ccc(C(=O)NCCOCCC(=O)N[C@@H]2CC[C@@]3(O)[C@H]4Cc5ccc(O)c6c5[C@@]3(CCN4CC3CC3)[C@H]2O6)cc1 [Naltrexone-3-NB590]
CYSLTR2, tracer 0.1μM
  NanoBRET Fold Response: 1.05
CYSLTR2, tracer 1μM
  NanoBRET Fold Response: 0.98

## Cc1cc2c(s1)Nc1ccccc1N=C2N1CCN(CCCNC(=O)CCOCCOCCOCCOCCNC(=O)CCc2ccc3n2[B-](F)(F)[N+]2=C(c4ccc[nH]4)C=CC2=C3)CC1 [Olanzapine-a-2-NB590]
CYSLTR2, tracer 0.1μM
  NanoBRET Fold Response: 0.95
CYSLTR2, tracer 1μM
  NanoBRET Fold Response: 0.99

## O=C(CCc1ccc2n1[B-](F)(F)[N+]1=C(c3ccc[nH]3)C=CC1=C2)NCc1ccc(C(=O)NCCOCCOCCNCC(O)COc2cccc3ccccc23)cc1 (stereo not drawn) [Propranolol-3-NB590]
CYSLTR2, 0.1μM
  NanoBRET Fold Response: 0.54
CYSLTR2, 1μM
  NanoBRET Fold Response: 1.01

## O=C(CCc1ccc2n1[B-](F)(F)[N+]1=C(c3ccc[nH]3)C=CC1=C2)NCCOCCOCCNC(=O)OCCOCCN1CCN(C2=Nc3ccccc3Sc3ccccc32)CC1 [Quetiapine-a-2-NB590]
CYSLTR2, tracer 0.1μM
  NanoBRET Fold Response: 0.88
CYSLTR2, tracer 1μM
  NanoBRET Fold Response: 0.85

## Cc1nc2n(c(=O)c1CCN1CCC(c3noc4cc(F)ccc34)CC1)CCCC2OC(=O)NCCOCCOCCOCCOCCNC(=O)CCc1ccc2n1[B-](F)(F)[N+]1=C(c3ccc[nH]3)C=CC1=C2 (stereo not drawn) [Risperidone-2-NB590]
CYSLTR2, tracer 0.1μM
  NanoBRET Fold Response: 0.97
CYSLTR2, tracer 1μM
  NanoBRET Fold Response: 1.15

## CC(C)N(CC[C@H](c1ccccc1)c1cc(CCNC(=O)CCOCCOCCOCCOCCNC(=O)CCc2ccc3n2[B-](F)(F)[N+]2=C(c4ccc[nH]4)C=CC2=C3)ccc1O)C(C)C [Tolterodine-2-NB590]
CYSLTR2, tracer 0.1μM
  NanoBRET Fold Response: 0.93
CYSLTR2, tracer 1μM
  NanoBRET Fold Response: 1.00

## CC(C)N(CC[C@H](c1ccccc1)c1cc(CCNC(=O)c2ccc(CNC(=O)CCc3ccc4n3[B-](F)(F)[N+]3=C(c5ccc[nH]5)C=CC3=C4)cc2)ccc1O)C(C)C [Tolterodine-BZ-NB590]
CYSLTR2, tracer 0.1μM
  NanoBRET Fold Response: 1.00
CYSLTR2, tracer 1μM
  NanoBRET Fold Response: 1.08

## CCCn1c(=O)c2[nH]c(-c3ccc(OCC(=O)NCCNC(=O)CCOCCNC(=O)c4ccc(CNC(=O)CCc5ccc6n5[B-](F)(F)[N+]5=C(c7ccc[nH]7)C=CC5=C6)cc4)cc3)nc2n(CCC)c1=O [XAC-3-NB590]
CYSLTR2, tracer 0.1μM
  NanoBRET Fold Response: 1.08
CYSLTR2, tracer 1μM
  NanoBRET Fold Response: 1.01
